Data set [1] addresses T1, NaV1.7 (Homo sapiens, UniProt Q15858).
T1 construct: expressed in transfected cells; tetracycline-inducible, kept under hygromycin and blasticidin selection
The experiment in a line: Intracellular (internal block) inhibition of NaV1.7 current, whole cell patch clamp. The data set is classed as cell-based. Particulars: compound in internal solution; for inhibition at 1 µM: read-out: Nav 1.7 Intracellular Inhibition. The protocol:
(§1) NaV1.7 was expressed upon induction with tetracycline. Cells were cultured in DMEM containing 10% dialyzed Fetal Bovine Serum (VWR, Radnor, PA), 1% Glutamax (VWR, Radnor, PA), 1% Penicillin-Streptomycin (VWR, Radnor, PA), 100 mg/L Hygromycin (Thermo Fisher Scientific, Waltham, MA and 5 mg/L Blasticidin (Alfa Aesar, Haverhill, MA). Cells were grown and maintained at 37° C. in a humidified environment containing 10% CO2 in air. Cells were detached from the culture flask for passage and harvested using 0.05% Trypsin-EDTA (Thermo Fisher Scientific, Waltham, MA). To induce NaV1.7, cells were induced with tetracycline (0.1-1 μg/mL, IBI Scientific, Peosta, IA) the day before recording and plated onto 24-well plates. Cells were washed with DPBS (VWR, Radnor, PA), trypsinized and then triturated five times in 10 mL of growth media to break apart cell aggregates. For one 24-well plate, 2 mL of cell suspension was mixed with 23 mL of fresh growth media and 0.1-1 μg/mL tetracycline added. 1 ml of mixed media with cells was then added to each well of a 24-well plate, with a 12 mm coverslip already placed in the bottom of the well. Cells were then incubated in 37° C. and 10% CO2 overnight.
The intracellular solution contained the following (in mM) CsCl 135, NaCl 10, EGTA 10, HEPES 10, MgCl2 2, adjusted to pH 7.2 with CsOH. The external solution was a normal Ringer solution containing (in mM) NaCl 155, HEPES 10, glucose 10, KCl 3.5, CaCl2 1.5, MgCl2 1 adjusted to pH 7.4 with NaOH. CsCl is from Alfa Aesar, Haverhill, MA. All other chemicals are from Sigma-Aldrich, St. Louis, MO. In order to test the degree of internal block by test compounds the compounds were dissolved in internal solution at the indicated test concentration. […] In order to test the degree of external block by test compounds the compounds were dissolved in external solution at the indicated test concentration.
18-24 hours after cells were induced with tetracycline, coverslips were placed into a chamber filled with Normal Ringer solution at room temperature and the chamber placed on a microscope. Pipettes were pulled from borosilicate glass on a P97 puller (Sutter Instrument, Novato, CA) and polished with a MF-830 Microforge (Narishige International USA, Inc, Amityville, NY) to have a resistance of 1.5-2.5 MΩ when filled with CsCl internal solution at room temperature. Healthy cells (those that are round and translucent with no visible blemishes) were chosen for seal formation. A seal was formed between the pipette and the cell, and a brief pulse of suction was used to “break in” and establish the whole-cell configuration. The membrane potential was held at −100 mV before the voltage protocol began. Only cells with series resistance between 1.5-5 MΩ were retained for analysis. The voltage protocol was as follows: Cells were held at −100 mV for 12 ms followed by a hyperpolarizing step to −105 mV for 12 ms to monitor the leak. Cells were then stepped back to −100 mV for 40 ms. Cells were then depolarized to −20 mV for 10 ms and then returned to −100 mV for 26 ms.
Once the recording was started, the voltage protocol was run at 30 second intervals for 5 minutes to get a stable baseline. This was followed by four 30-second periods of 5 Hz stimulation of the same voltage protocol separated by 1 minute of rest which was then followed by 0.33 Hz stimulation after the last train. Currents were recorded using PatchMaster software with Heka EPC10 (HEKA Electronics, Lambrecht, Germany). Only cells with inward current amplitudes at −20 m V between 400 pA and 4 nA were accepted. In addition, cells having leak currents greater than 10% of their current amplitudes were discarded.
(§2) The data was plotted using the Patchmaster software (HEKA Electronics, Lambrecht, Germany) and analyzed by plotting the minimum current during the voltage step to −20 m V (peak inward current) as a function of time. […]
(In general: In patch-clamp work, channel activity is measured electrically.)

A short description of data set [2]: PAMPA membrane permeability assay. The data set is classed as in vitro ADME. Conditions: pH 7.4, GIT lipid, 4 hours incubation. The protocol:
The PAMPA assay (pION, Inc., Woburn MA) was used to determine the ability of compounds of the invention to cross an artificial lipid membrane by passive diffusion. Test compounds were dissolved in DMSO (10 mM) and diluted 200-fold in buffer (pION Inc., pH 7.4) to provide 50 μM stock solutions. Buffer (150 μL) was added to a UV blank plate and stock solutions (150 μL) were transferred to a UV reference plate. The blank and reference spectrum were read using a spectrophotometer. Stock solutions (200 μL) were added to the donor plate of the PAMPA sandwich plate and an accept plate painted with GIT lipid (pION Inc, 5 μL) was placed on top. Buffer (200 μL) was added to the acceptor plate and the PAMPA sandwich plate was incubated for 4 hours. Aliquots (150 μL) from the acceptor plate were added to a UV plate and read as acceptor spectrum. Aliquots (150 μL) of the donor solutions were added to a UV analysis plate and read as donor spectrum. The permeability coefficient of test compounds was calculated using PAMPA Explorer™ software (version 3.5.0.4) based on the AUC of the reference plate, the donor plate, and the acceptor plate.
For orientation: PAMPA measures passive passage across an artificial lipid membrane.

The target of data set [3] is T1, NaV1.7. The experiment in a line: Extracellular (external block) inhibition of NaV1.7 current, whole cell patch clamp. The data set is classed as cell-based. Conditions: compound in external solution. The protocol: as §1, with “For one 24-well plate, 2 mL of cell suspension was mixed with 23 mL of fresh growth media and 0.1-1 μg/mL tetracycline added. 1 ml of mixed media with cells was then added to each well of a 24-well plate, with a 12 mm coverslip already placed in the bottom of the well. Cells were then incubated in 37° C. and 10% CO2 overnight.” left out
Once the recording was started, the voltage protocol was run at 30 second intervals for 5 minutes to get a stable baseline. […] Currents were recorded using PatchMaster software with Heka EPC10 (HEKA Electronics, Lambrecht, Germany). […]
as §2

Where only a bound is given, the exact number is not on record here.

T1 sequence (Q15858 whole entry): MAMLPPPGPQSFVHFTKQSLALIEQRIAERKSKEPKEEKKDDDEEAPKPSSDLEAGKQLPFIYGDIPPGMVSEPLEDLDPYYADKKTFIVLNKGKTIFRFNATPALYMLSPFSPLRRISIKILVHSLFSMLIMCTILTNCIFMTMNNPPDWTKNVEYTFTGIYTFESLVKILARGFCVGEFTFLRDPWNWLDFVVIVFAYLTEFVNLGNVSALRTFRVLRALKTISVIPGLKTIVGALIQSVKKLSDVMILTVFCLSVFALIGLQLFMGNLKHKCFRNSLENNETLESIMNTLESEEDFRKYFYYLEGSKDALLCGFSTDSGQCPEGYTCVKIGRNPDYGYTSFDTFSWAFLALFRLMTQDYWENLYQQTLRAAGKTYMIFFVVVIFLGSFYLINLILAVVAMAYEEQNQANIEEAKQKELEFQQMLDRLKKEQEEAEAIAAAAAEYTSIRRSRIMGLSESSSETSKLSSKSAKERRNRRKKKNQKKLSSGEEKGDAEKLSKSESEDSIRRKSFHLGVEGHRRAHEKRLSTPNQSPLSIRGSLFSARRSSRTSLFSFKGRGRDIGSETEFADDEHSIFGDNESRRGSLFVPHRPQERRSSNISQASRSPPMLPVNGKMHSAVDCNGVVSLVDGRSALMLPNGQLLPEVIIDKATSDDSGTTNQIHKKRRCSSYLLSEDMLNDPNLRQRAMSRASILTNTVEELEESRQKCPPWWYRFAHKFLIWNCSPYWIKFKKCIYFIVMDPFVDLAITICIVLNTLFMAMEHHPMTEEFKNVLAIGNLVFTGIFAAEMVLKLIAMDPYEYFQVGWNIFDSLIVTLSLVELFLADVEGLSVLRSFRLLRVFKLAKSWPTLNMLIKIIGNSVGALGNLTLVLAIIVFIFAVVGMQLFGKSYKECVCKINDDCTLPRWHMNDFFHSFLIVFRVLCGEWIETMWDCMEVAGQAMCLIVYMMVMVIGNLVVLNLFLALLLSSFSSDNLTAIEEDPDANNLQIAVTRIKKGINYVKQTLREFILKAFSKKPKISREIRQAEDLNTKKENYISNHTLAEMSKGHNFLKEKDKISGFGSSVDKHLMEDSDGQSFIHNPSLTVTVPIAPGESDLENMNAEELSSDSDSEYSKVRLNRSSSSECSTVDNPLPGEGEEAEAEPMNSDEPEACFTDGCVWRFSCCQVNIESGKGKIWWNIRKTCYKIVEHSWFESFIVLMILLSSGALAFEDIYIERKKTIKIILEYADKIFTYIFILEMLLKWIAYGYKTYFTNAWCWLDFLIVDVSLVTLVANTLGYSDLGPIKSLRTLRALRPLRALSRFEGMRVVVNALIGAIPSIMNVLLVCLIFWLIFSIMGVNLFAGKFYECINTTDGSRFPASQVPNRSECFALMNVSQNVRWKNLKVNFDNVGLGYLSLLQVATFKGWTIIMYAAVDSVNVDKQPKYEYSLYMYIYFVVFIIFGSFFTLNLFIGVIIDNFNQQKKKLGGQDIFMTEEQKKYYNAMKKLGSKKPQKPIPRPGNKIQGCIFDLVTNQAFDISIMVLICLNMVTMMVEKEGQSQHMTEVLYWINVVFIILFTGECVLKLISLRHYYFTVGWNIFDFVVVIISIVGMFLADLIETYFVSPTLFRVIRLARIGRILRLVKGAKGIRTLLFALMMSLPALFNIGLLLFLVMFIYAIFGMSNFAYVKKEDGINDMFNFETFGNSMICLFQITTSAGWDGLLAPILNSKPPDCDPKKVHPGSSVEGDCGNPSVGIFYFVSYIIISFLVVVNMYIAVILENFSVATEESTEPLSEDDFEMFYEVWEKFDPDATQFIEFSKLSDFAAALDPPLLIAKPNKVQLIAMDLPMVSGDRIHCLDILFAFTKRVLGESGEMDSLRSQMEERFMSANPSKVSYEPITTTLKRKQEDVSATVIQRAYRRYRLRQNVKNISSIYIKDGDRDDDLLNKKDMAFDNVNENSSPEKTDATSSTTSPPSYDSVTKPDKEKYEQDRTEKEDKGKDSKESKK

As for `COC(=O)c1scc(C)c1NC(=O)C[N+]1(Cc2ccccc2)CCCC1.[Br-]` [A], at NaV1.7 [1], the inhibition (as a rule, how much of the control response was suppressed) at 1 µM is 40 to 70%. Besides, the “PAMPA (10^−6 cm/s)” value in data set [2] was “+ (“+” (<0.1 10^−6 cm/s))”.

With `COC(=O)c1scc(C)c1NC(=O)C[N+]1(Cc2ccccc2)CCCCCC1.[Br-]` [Compound-31, 1-benzyl-1-(2-((2-(methoxycarbonyl)-4-methylthiophen-3-yl)amino)-2-oxoethyl) azepan-1-ium bromide], at NaV1.7 [1], the inhibition at 1 µM was in the range of 70 to 90%. The inhibition at 3 µM was over 95% on NaV1.7 [1] (test concentration of 3 μM) and under 40% against NaV1.7 [3] (test concentration of 3 μM). In addition, in data set [2] (PAMPA), the Papp (as a rule, a coefficient for how fast a substance crosses the barrier) at 4 h, 50 µM was 0.4 ×10⁻⁶ cm/s. For the same compound, the “PAMPA (10^−6 cm/s)” value in data set [2] is “++ (“++” (0.1-2.0 10^−6 cm/s))”.

For the compound `COC(=O)c1scc(C)c1NC(=O)C[N+]1(Cc2ccccc2)CCCCC1.[Br-]` [B], at NaV1.7 [1], the inhibition at 1 µM fell in the range of 40 to 70%. Further, the “PAMPA (10^−6 cm/s)” value in data set [2] is recorded as “++ (“++” (0.1-2.0 10^−6 cm/s))”.

For `CC[N+]1(CC(=O)Nc2c(C)csc2C(=O)OC)CCCC(c2ccccc2)C1.[I-]` (stereo not shown) [F], the inhibition at 1 µM at NaV1.7 [1] lay within 70 to 90%. Besides, in data set [2], the “PAMPA (10^−6 cm/s)” value is on record as “+ (“+” (<0.1 10^−6 cm/s))”.

For the compound `CCCOC(=O)c1scc(C)c1NC(=O)C[N+]1(Cc2ccccc2)CCCCCC1.[Br-]` [C], the inhibition at 1 µM on NaV1.7 [1] is over 90%. Also, the “PAMPA (10^−6 cm/s)” value in data set [2] is “+ (“+” (<0.1 10^−6 cm/s))”.

Consider `CCC(C(=O)Nc1c(C)csc1C(=O)OC)[N+]1(Cc2ccccc2)CCCCC1.[Br-]` (stereo not shown) [G], for which, at NaV1.7 [1], the inhibition at 1 µM was in the range of 40 to 70%. The “PAMPA (10^−6 cm/s)” value in data set [2] is “+ (“+” (<0.1 10^−6 cm/s))”.

For `CCOC(=O)c1scc(C)c1NC(=O)C[N+]1(Cc2ccccc2)CCCCCC1.[Br-]` [D], the results for the inhibition at 1 µM on NaV1.7 [1] and on NaV1.7 [3] (test concentration of 1 μM) were over 90% and under 40%, respectively. Moreover, the “PAMPA (10^−6 cm/s)” value in data set [2] is given as “+ (“+” (<0.1 10^−6 cm/s))”.

For the compound `Cc1csc(C(=O)OC(C)C)c1NC(=O)C[N+]1(Cc2ccccc2)CCCCCC1.[Br-]` [E], at NaV1.7 [1], the inhibition at 1 µM fell in the range of 70 to 90%. In addition, in data set [2], the “PAMPA (10^−6 cm/s)” value was “++ (“++” (0.1-2.0 10^−6 cm/s))”.

Consider `Cc1csc(C)c1NC(=O)C[N+]1(Cc2ccccc2)CCCCCC1.[Br-]` [H], for which, on NaV1.7 [1], the inhibition at 1 µM was 40 to 70%. In addition, in data set [2], the “PAMPA (10^−6 cm/s)” value was “+ (“+” (<0.1 10^−6 cm/s))”.

The record behind these values is patent publication US20240277727A1, “CHARGED ION CHANNEL BLOCKERS AND METHODS FOR USE” (Nocion Therapeutics, Inc., priority 2019, published 2024).
